According to patent publication EP0187355A1, “Process for preparing beta-lactam antibiotics” (E.R. Squibb & Sons, Inc., priority 1981, dated 1982):
Counter-ions that a name gives are not always drawn.

Tests used:
Assay in all cases: MIC, agar dilution
Type in all cases: cell-based
[1] = tested on: Acinetobacter calcoaceticus, 8333; details: K-10 agar, 10^4 CFU, 37°C
Method: (§1) The following methodology is used to determine the minimum inhibitory concentration (hereinafter referred to as MIC) of the […] of this invention.
(§2) The test organisms are grown in approximately 15-20 ml of Antibiotic Assay broth (Difco) by inoculating (in tubes) the broth with a loopful of the organism from a BHI (Difco) agar slant. The inoculated tubes are incubated at 37°C for 18 to 20 hours. These cultures are assumed to contain 10^9 colony forming units (hereinafter CFU) per milliliter. The cultures are diluted 1:100 to give a final inoculum level of 10^4 CFU; dilutions are made with K-10 broth^*.
(§3) The compounds are dissolved in the appropriate diluent at a concentration of 1000 µg/ml. Twofold dilutions are made in K-10 broth resulting in a range from 1000 µg/ml to 0.5 µg/ml. 1.5 ml of each dilution is placed into individual square petri dishes to which 13.5 ml of K-10 agar^** is added. The final drug concentration in the agar ranges from 100 µg/ml to 0.05 µg/ml. Organism growth control plates containing agar only are prepared and inoculated before and after the test plates. The organisms are applied to the agar surface of each plate with the Denley Multipoint Inoculator (which delivers approximately 0.001 ml of each organism) resulting in a final inoculum level of 10^4 CFU on the agar surface.
(§4) The plates are incubated at 37 °C for 18 hours and the MIC's are determined. The MIC is the lowest concentration of compound inhibiting growth of the organism.
(§5) The tables that follow are tabulated results obtained when the B-lactams of this invention are tested against various organisms. The number following each organism refers to the number of the organism in the collection of E. R. Squibb & Sons,.Inc., Princeton, New Jersey. […] The symbol "N.T." means not tested.

[2] = tested on: Citrobacter freundii, 9518; details: K-10 agar, 10^4 CFU, 37°C
Method: as §1, §2, §3, §4, §5

[3] = tested on: Enterobacter aerogenes, 10078
Method: as §1, §2, §3, §4, §5

Escherichia coli, 10857 = details: K-10 agar, 10^4 CFU, 37°C
Method: as §1, §2, §3, §4, §5

Escherichia coli, 10896 = details: K-10 agar, 10^4 CFU, 37°C, 18 hours
Method: as §1, §2, §3, §4, §5

Escherichia coli, 10909 = details: K-10 agar, 10^4 CFU, 37°C, 18 hours
Method: as §1, §2, §3, §4, §5

Escherichia coli, 8294 = details: K-10 agar, 10^4 CFU, 37°C
Method: as §1, §2, §3, §4, §5

[4] = tested on: Klebsiella aerogenes, 10440; details: K-10 agar, 10^4 CFU, 37°C
Method: as §1, §2, §3, §4, §5

[5] = tested on: Klebsiella pneumoniae, 9527; details: K-10 agar, 10^4 CFU, 37°C
Method: as §1, §2, §3, §4, §5

Proteus mirabilis, 3855 = details: K-10 agar, 10^4 CFU, 37°C
Method: as §1, §2, §3, §4, §5

Proteus rettgeri, 8479 = details: K-10 agar, 10^4 CFU, 37°C
Method: as §1, §2, §3, §4, §5

Proteus vulgaris, 9416 = details: K-10 agar, 10^4 CFU, 37°C
Method: as §1, §2, §3, §4, §5

[6] = tested on: Pseudomonas aeruginosa, 8329; details: K-10 agar, 10^4 CFU, 37°C
Method: as §1, §2, §3, §4, §5

[7] = tested on: Pseudomonas aeruginosa, 9545; details: K-10 agar, 10^4 CFU, 37°C
Method: as §1, §2, §3, §4, §5

Salmonella typhosa, 1195 = details: K-10 agar, 10^4 CFU, 37°C
Method: as §1, §2, §3, §4, §5

[8] = tested on: Serratia marcescens, 9783; details: K-10 agar, 10^4 CFU, 37°C
Method: as §1, §2, §3, §4, §5

Shigella sonnei, 8449 = details: K-10 agar, 10^4 CFU, 37°C, 18 hours
Method: as §1, §2, §3, §4, §5

[9] = tested on: Staphylococcus aureus, 10165
Method: as §1, §2, §3, §4, §5

[10] = tested on: Staphylococcus aureus, 1276
Method: as §1, §2, §3, §4, §5

[11] = tested on: Staphylococcus aureus, 2399
Method: as §1, §2, §3, §4, §5

[12] = tested on: Staphylococcus aureus, 2400
Method: as §1, §2, §3, §4, §5

[13] = tested on: Streptococcus faecalis, 9011
Method: as §1, §2, §3, §4, §5

Micrococcus luteus, 2495 = details: Micrococcus luteus, 2495, 18 h, K-10 agar, 10^4 CFU, 37°C
Method: as §1, §2, §3
(§6) The MIC is the lowest concentration of compound inhibiting growth of the organism.
(§7) The number following each organism refers to the number of the organism in the collection of E. R. Squibb & Sons,.Inc., Princeton, New Jersey. […] The symbol "N.T." means not tested.

[14] = tested on: Streptococcus agalactiae, 9287; details: K-10 agar, 10^4 CFU, 37°C, 18 hours
Method: as §1, §2, §3, §6, §7

C[C@@H]1[C@H](NC(=O)/C(=N\OC(C)(C)C(=O)O)c2csc(N)n2)C(=O)N1S(=O)(=O)O [Example 16, [3α(Z),4α]-3-[[(2-Amino-4-thiazolyl) [(1-carboxy-1-methylethoxy)imino]acetyl]amino]-4-methyl-2-oxo-l-azetidinesulfonic acid, potassium salt (1:2)] was tested, and the MIC ([1]; Acinetobacter calcoaceticus, 8333, 18 h) was 50 µg/mL, the MIC ([2]; Citrobacter freundii, 9518, 18 h) was 0.8 µg/mL and the MIC ([3]; Klebsiella aerogenes, 10078, 18 h) was 0.8 µg/mL. The MIC (Escherichia coli, 10857; Escherichia coli, 10857, 18 h) was 0.2 µg/mL, the MIC (Escherichia coli, 10896) was 0.2 µg/mL and the MIC (Escherichia coli, 10909) was < 0.05 µg/mL. For the same compound, the MIC (Escherichia coli, 8294; Escherichia coli, 8294, 18 h) was 0.4 µg/mL, the MIC ([4]; Klebsiella aerogenes, 10440, 18 h) was 0.8 µg/mL and the MIC ([5]; Klebsiella pneumoniae, 9527, 18 h) was 0.1 µg/mL. For the same compound, the MIC (Proteus mirabilis, 3855; Proteus mirabilis, 3855, 18 h) was < 0.05 µg/mL, the MIC (Proteus rettgeri, 8479; Providencia rettgeri, 8479, 18 h) was < 0.05 µg/mL and the MIC (Proteus vulgaris, 9416; Proteus vulgaris, 9416, 18 h) was < 0.05 µg/mL. The MIC ([6]; Pseudomonas aeruginosa, 8329, 18 h) was 3.1 µg/mL, the MIC ([7]; Pseudomonas aeruginosa, 9545, 18 h) was 0.8 µg/mL and the MIC (Salmonella typhosa, 1195; Salmonella enterica, TYPHOSA, 18 h) was < 0.05 µg/mL. For the same compound, the MIC ([8]; Serratia marcescens, 9783, 18 h) was 0.4 µg/mL, the M.I.C. (Shigella sonnei, 8449) was 0.4 µg/mL and the MIC ([9]; Staphylococcus aureus, 10165, 18 h) was > 100 µg/mL. The MIC ([10]; Staphylococcus aureus, 1276, 18 h) was > 100 µg/mL, the MIC ([11]; Staphylococcus aureus, 2399, 18 h) was > 100 µg/mL and the MIC ([12]; Staphylococcus aureus, 2400, 18 h) was > 100 µg/mL. The MIC ([13]; Enterococcus faecalis, 9011, 18 h) was > 100 µg/mL, the MIC (Micrococcus luteus, 2495) was 25 µg/mL and the M.I.C. [14] was 50 µg/mL.
For C[C@@H]1[C@H](NC(=O)/C(=N\OC(C)(C)C(=O)O)c2csc(N)n2)C(=O)N1S(=O)(=O)O [Example 23, [3S-(3α(Z),4a]]-3-[[(2-Amino-4-thiazolyl) [(1-carboxy-1-methylethoxy)imino)acetyl]amino]-4-methyl-2-oxo-l-azetidinesulfonic acid, potassium salt (1:2)], the M.I.C. ([1]; 18 hours) was 25 µg/mL, the M.I.C. ([2]; 18 hours) was 0.4 µg/mL and the M.I.C. ([3]; Enterobacter aerogenes, 10078, K-10 agar, 10^4 CFU, 37°C, 18 hours) was 0.8 µg/mL. For the same compound, the M.I.C. (Escherichia coli, 10857; 18 hours) was 0.1 µg/mL, the M.I.C. (Escherichia coli, 10896) was 0.2 µg/mL and the M.I.C. (Escherichia coli, 8294; 18 hours) was 0.2 µg/mL. The M.I.C. ([4]; 18 hours) was 0.4 µg/mL, the M.I.C. ([5]; 18 hours) was 0.05 µg/mL and the M.I.C. (Proteus mirabilis, 3855; 18 hours) was 0.05 µg/mL. The M.I.C. (Proteus rettgeri, 8479; 18 hours) was 0.05 µg/mL, the M.I.C. (Proteus vulgaris, 9416; 18 hours) was 0.05 µg/mL and the M.I.C. ([6]; 18 hours) was 1.6 µg/mL. It also gave a M.I.C. ([7]; 18 hours) of 0.4 µg/mL, a M.I.C. (Salmonella typhosa, 1195; 18 hours) of 0.05 µg/mL and a M.I.C. ([8]; 18 hours) of 0.2 µg/mL. For the same compound, the M.I.C. (Shigella sonnei, 8449) was 0.1 µg/mL, the M.I.C. ([9]; Staphylococcus aureus, 10165, K-10 agar, 10^4 CFU, 37°C, 18 hours) was “- (A dash (-) in the tables means that the compound tested did not show activity against the particular organism at 100 µg/ml)” and the M.I.C. ([10]; Staphylococcus aureus, 1276, K-10 agar, 10^4 CFU, 37°C, 18 hours) was “- (A dash (-) in the tables means that the compound tested did not show activity against the particular organism at 100 µg/ml)”. The M.I.C. ([11]; Staphylococcus aureus, 2399, K-10 agar, 10^4 CFU, 37°C, 18 hours) was “- (A dash (-) in the tables means that the compound tested did not show activity against the particular organism at 100 µg/ml)”, the M.I.C. ([12]; Staphylococcus aureus, 2400, K-10 agar, 10^4 CFU, 37°C, 18 hours) was “- (A dash (-) in the tables means that the compound tested did not show activity against the particular organism at 100 µg/ml)” and the M.I.C. ([13]; Streptococcus faecalis, 9011, K-10 agar, 10^4 CFU, 37°C, 18 hours) was “- (A dash (-) in the tables means that the compound tested did not show activity against the particular organism at 100 µg/ml)”.
